Results published in article PMC5795052 (Open Biology, 2018).

What was measured:
[1] = test system: aVP-induced IP3 production in hVSMC; experiment: IP3 production (ELISA) in hVSMC upon aVP stimulation; assay type: cell-based, human; conditions: TM peptides 10 µM, 30 min at 37°C, then aVP 1 µM, 5 min; n = 4; figure 8c
Experimental: (§1) hVSMCs (primary aortic smooth muscle cells, ATCC PCS-100-012), A7r5 cells (ATCC-CRL-1444) and HEK293T cells (ATCC-CRL-11268) were purchased from American Type Culture Collection. hVSMCs were cultured in vascular basal media (ATCC PCS-100-030) supplemented with the vascular smooth muscle growth kit (ATCC PCS-100-042), containing 100 U ml^−1 penicillin and 100 µg ml^−1 streptomycin. hVSMCs were used between passages 2–5. HEK293T and A7r5 cells were cultured in high-glucose Dulbecco's Modified Eagle's Medium containing 10 mg ml^−1 sodium pyruvate, 2 mM L-glutamine, 10% (vol/vol) FBS, 1× non-essential amino acids, 100 U ml^−1 penicillin and 100 µg ml^−1 streptomycin. The HTLA cell line, a HEK293 cell line stably expressing a tTA-dependent luciferase reporter and a β-arrestin 2–TEV fusion gene were generously provided by the laboratory of Dr Bryan Roth and maintained in high-glucose Dulbecco's Modified Eagle's Medium supplemented with 10% (vol/vol) FBS, 1× non-essential amino acids, 100 U ml^−1 penicillin, 100 µg ml^−1 streptomycin, 50 µg ml^−1 hygromycin B and 2 µg ml^−1 puromycin. All cells were cultured in a humidified environment at 37°C, 5% CO2.
ACKR3 and CXCR4 siRNA gene silencing was performed as described previously. In brief, cells were grown in 2 ml Accell siRNA delivery media per well (Dharmacon) in six-well plates (Nunc). Commercially available Accell ACKR3 and CXCR4 siRNA were reconstituted with 1× siRNA buffer to a stock concentration of 100 µM. Cells were then transfected with 1 µM ACKR3/CXCR4 siRNA and incubated for 72 h at 37°C, 5% CO2. Accell NT-siRNA pool was used as a negative control. After 72 h, cells were assayed for receptor cell surface expression and used for signalling experiments.
IP3 enzyme-linked immunosorbent assays were purchased from LS Bio and performed as per the manufacturer's protocol (LS BIO F10644). In brief, hVSMCs were grown to confluency in six-well dishes (Nunc) and then treated as described in the Results section. Cells were then washed once with cold PBS, 225 µl of cold PBS was added to each well and cells were lysed by ultrasonication. The cell lysate was centrifuged for 10 min at 4°C at 1500g to remove cellular debris. The total protein concentration in the supernatant was determined with the Bio-Rad DC Protein Assay as per the manufacturer's protocol (Bio-Rad 500-0116). Equivalent amounts of total protein were added to the ELISA strips diluted in the provided sample diluent (1 : 5 and 1 : 10). The assay was then completed as per the manufacturer's protocol. Optical densities were read on a Biotek Synergy II microplate reader (absorbance at 450 nm), and IP3 concentrations were extrapolated from the standard curve.

[2] = test system: ACKR3; experiment: β-arrestin 2 recruitment assay (PRESTO-Tango) for ACKR3 co-expressed with pcDNA3 or HA-AVPR1A; assay type: cell-based, human; conditions: cells co-expressing ACKR3-Tango and AVPR1A, TM peptides 10 µM, 30 min at 37°C, figure 9h; for effect of TM peptides on efficacy of aVP to induce β-arrestin 2 recruitment to ACKR3-Tango: then aVP, versus vehicle
Source text: The human AVPR1A cDNA sequence was from the AVPR1A-TANGO plasmid (Addgene, plasmid #66225). The hRLuc cDNA was PCR-amplified from pIRES-Myc-hCXCR4-Rluc, which was generously provided by Dr Michel Bouvier, with primers carrying the AgeI and XbaI sites at either end, respectively, and ligated with the C-terminus of AVPR1A at the corresponding sites. Human CXCR4 and ACKR3 cDNAs were from the CXCR4-TANGO (Addgene, plasmid #66262) and the ACKR3-TANGO (Addgene, plasmid #66265) plasmids. The EYFP cDNA was PCR-amplified from pEYFP with primers harbouring AgeI and XbaI sites and ligated with the C-terminus of ACKR3. All plasmids were confirmed by sequencing.
as §1
The PRESTO-Tango (parallel receptorome expression and screening via transcriptional output, with transcriptional activation following arrestin translocation) assay was performed as recently described. The Tango plasmids were a gift from Dr Bryan Roth (all from Addgene). HTLA cells (2.5 × 10^5 per well) were seeded in a six-well plate and transfected with 1.5 µg of the Tango plasmids using Lipofectamine 3000 (ThermoScientific). The following day, transfected HTLA cells (1 × 10^5 cells per well) were plated onto poly-L-lysine precoated 96-well microplates and allowed to attach to the plate surface for at least 4 h prior to treatment. Proteins used for treatment were prepared in twice the final concentration in culture media, added at a 1 : 1 vol/vol ratio and incubated overnight at 37°C, 5% CO2 in a humidified environment. The following morning, media were removed from cell culture plates and replaced with a 100 µl 1 : 5 mixture of Bright-Glo (Promega) and 1× HBSS, 20 mM HEPES solution. Plates were then incubated at room temperature before measuring luminescence on a Biotek Synergy II plate reader.

[3] = test system: ACKR3; conditions: ref [21]; cited from earlier work
Experimental: The effects of the TM peptide analogues of ACKR3 on aVP-induced recruitment of β-arrestin 2 to ACKR3-Tango in cells co-expressing ACKR3-Tango and AVPR1A are shown in figure 9h.

[4] = test system: ACKR3 : AVPR1A heteromer; experiment: PLA signals for ACKR3 : AVPR1A interactions in hVSMC; assay type: cell-based, human; conditions: 10 µM, 30 min at 37°C; figure 8b; *p < 0.05 versus vehicle
Experimental: as §1
(§2) PLAs were performed as described in detail previously. In brief, cells were grown and fixed on eight-well chamber slides (Nunc). […]

[5] = test system: CXCR4 : AVPR1A heteromer; experiment: PLA signals for CXCR4 : AVPR1A interactions in hVSMC; assay type: cell-based, human; conditions: 10 µM, 30 min at 37°C; figure 8b
Experimental: as §1, §2

Sequence: DDDLHVTQCLSLVHCCVNPVLYSFIN [TM7, peptide analogue of transmembrane helix 7 (TM7) of ACKR3, described previously [21]]
- effect of TM peptides on aVP-induced IP3 production [1]: ineffective
- effect of TM peptides on efficacy of aVP to induce β-arrestin 2 recruitment to ACKR3-Tango [2]: did not show significant effects
- behaviour in β-arrestin 2 recruitment to ACKR3-Tango upon agonist stimulation [3]: inactive

Sequence: VVCILWLLAFCVSLPDTYYLDD [TM4, peptide analogue of transmembrane helix 4 (TM4) of ACKR3, described previously [21]]
- effect of TM peptides on aVP-induced IP3 production [1]: inhibited aVP-induced IP3 production
- effect of TM peptides on PLA signals for AVPR1A : ACKR3 interactions [4]: reduced PLA signals for AVPR1A : ACKR3 interactions
- effect of TM peptides on PLA signals for AVPR1A : CXCR4 interactions [5]: did not increase AVPR1A : CXCR4 interactions
- effect of TM peptides on efficacy of aVP to induce β-arrestin 2 recruitment to ACKR3-Tango [2]: significantly reduced the efficacy of aVP to induce β-arrestin 2 recruitment
- inhibition of aVP-induced β-arrestin 2 recruitment to ACKR3-Tango (comparison TM2/TM4) [2]: inhibited aVP-induced β-arrestin 2 recruitment to ACKR3-Tango with comparable efficacy
- mode of antagonism of aVP-induced β-arrestin 2 recruitment to ACKR3-Tango [2]: non-competitive antagonists
- behaviour in β-arrestin 2 recruitment to ACKR3-Tango upon agonist stimulation [3]: behaviour similar to the TM2 peptide, but this effect did not reach statistical significance

Sequence: YILNLAIADLWVVLTIPVWVVDDD [TM2, peptide analogue of transmembrane helix 2 (TM2) of ACKR3, described previously [21]]
- effect of TM peptides on aVP-induced IP3 production [1]: inhibited aVP-induced IP3 production
- effect of TM peptides on PLA signals for AVPR1A : ACKR3 interactions [4]: reduced PLA signals for AVPR1A : ACKR3 interactions
- effect of TM peptides on PLA signals for AVPR1A : CXCR4 interactions [5]: did not increase AVPR1A : CXCR4 interactions
- effect of TM peptides on efficacy of aVP to induce β-arrestin 2 recruitment to ACKR3-Tango [2]: significantly reduced the efficacy of aVP to induce β-arrestin 2 recruitment
- inhibition of aVP-induced β-arrestin 2 recruitment to ACKR3-Tango (comparison TM2/TM4) [2]: inhibited aVP-induced β-arrestin 2 recruitment to ACKR3-Tango with comparable efficacy
- mode of antagonism of aVP-induced β-arrestin 2 recruitment to ACKR3-Tango [2]: non-competitive antagonists
- behaviour in β-arrestin 2 recruitment to ACKR3-Tango upon agonist stimulation [3]: competitive antagonist
